# Source: PubChem BioAssay (NCI)
#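 Interpolation was linear, between the two tested concentrations surrounding the appropriate level; five concentrations were tested over 48 hours in 96-well plates. GI50: concentration for 50% inhibition of growth. The concentration for full growth arrest is given as TGI.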
# How the values were obtained:
# Assay in all cases: NCI anticancer screen, dose series, 48 h
# K-562 leukemia = system: K-562 leukemia
# U251 CNS = system: U251 CNS
# KM12 colon = system: KM12 colon
# OVCAR-8 ovarian = system: OVCAR-8 ovarian
# PC-3 prostate = system: PC-3 prostate
# NCI-H23 lung = system: NCI-H23 lung
# BT-549 breast = system: BT-549 breast
# HCT-15 colon = system: HCT-15 colon
# SN12C renal = system: SN12C renal
# OVCAR-4 ovarian = system: OVCAR-4 ovarian
# SNB-19 CNS = system: SNB-19 CNS
# SF-539 CNS = system: SF-539 CNS
# HS 578T breast = system: HS 578T breast
# HCC-2998 colon = system: HCC-2998 colon
# 786-0 renal = system: 786-0 renal
# NCI/ADR-RES ovarian = system: NCI/ADR-RES ovarian
# CCRF-CEM leukemia = system: CCRF-CEM leukemia
# NCI-H226 lung = system: NCI-H226 lung
# UACC-62 melanoma = system: UACC-62 melanoma
# SF-295 CNS = system: SF-295 CNS
# SK-MEL-28 melanoma = system: SK-MEL-28 melanoma
# HCT-116 colon = system: HCT-116 colon
# SR leukemia = system: SR leukemia
# ACHN renal = system: ACHN renal
# NCI-H522 lung = system: NCI-H522 lung
# MDA-MB-435 = system: MDA-MB-435
# RXF 393 renal = system: RXF 393 renal
# SK-MEL-5 melanoma = system: SK-MEL-5 melanoma
# CAKI-1 renal = system: CAKI-1 renal
# SK-OV-3 ovarian = system: SK-OV-3 ovarian
# HOP-62 NSCLC = system: HOP-62 NSCLC
# OVCAR-5 ovarian = system: OVCAR-5 ovarian
# COLO 205 colon = system: COLO 205 colon
# EKVX NSCLC = system: EKVX NSCLC
# RPMI-8226 leukemia = system: RPMI-8226 leukemia
# MCF7 breast = system: MCF7 breast
# TK-10 renal = system: TK-10 renal
# IGROV1 ovarian = system: IGROV1 ovarian
# A549 NSCLC = system: A549 NSCLC
# HL-60(TB) leukemia = system: HL-60(TB) leukemia
# UACC-257 melanoma = system: UACC-257 melanoma
# MALME-3M melanoma = system: MALME-3M melanoma
# LOX IMVI melanoma = system: LOX IMVI melanoma
# UO-31 renal = system: UO-31 renal
# MDA-MB-231 breast = system: MDA-MB-231 breast
# A498 renal = system: A498 renal
# OVCAR-3 ovarian = system: OVCAR-3 ovarian
# HOP-92 NSCLC = system: HOP-92 NSCLC
# SF-268 CNS = system: SF-268 CNS
# SW-620 colon = system: SW-620 colon
# DU-145 prostate = system: DU-145 prostate
# NCI-H460 lung = system: NCI-H460 lung
# MOLT-4 leukemia = system: MOLT-4 leukemia
# SNB-75 CNS = system: SNB-75 CNS
# HT29 colon = system: HT29 colon
structure (smiles),measurement,setting,value
OC[C@H]1C[C@](O)(c2ccccc2Cl)[C@@H](c2ccccc2Cl)O1,GI50,K-562 leukemia,20 µM
same,TGI,K-562 leukemia,56.9 µM
same,GI50,U251 CNS,28.5 µM
same,TGI,U251 CNS,> 100 µM
same,GI50,KM12 colon,25.4 µM
same,TGI,KM12 colon,64.8 µM
same,GI50,OVCAR-8 ovarian,26.4 µM
same,TGI,OVCAR-8 ovarian,86.6 µM
same,GI50,PC-3 prostate,24.2 µM
same,TGI,PC-3 prostate,74.6 µM
same,GI50,NCI-H23 lung,25.9 µM
same,TGI,NCI-H23 lung,74.2 µM
same,GI50,BT-549 breast,16.9 µM
same,TGI,BT-549 breast,37 µM
same,GI50,HCT-15 colon,28.4 µM
same,TGI,HCT-15 colon,> 100 µM
same,GI50,SN12C renal,20.8 µM
same,TGI,SN12C renal,41.2 µM
same,GI50,OVCAR-4 ovarian,24.3 µM
same,TGI,OVCAR-4 ovarian,99.2 µM
same,GI50,SNB-19 CNS,31.7 µM
same,TGI,SNB-19 CNS,> 100 µM
same,GI50,SF-539 CNS,22.4 µM
same,TGI,SF-539 CNS,50.7 µM
same,GI50,HS 578T breast,16.3 µM
same,TGI,HS 578T breast,38.4 µM
same,GI50,HCC-2998 colon,29.5 µM
same,TGI,HCC-2998 colon,79.4 µM
same,GI50,786-0 renal,26.1 µM
same,TGI,786-0 renal,68.5 µM
same,GI50,NCI/ADR-RES ovarian,29.4 µM
same,TGI,NCI/ADR-RES ovarian,> 100 µM
same,GI50,CCRF-CEM leukemia,27.8 µM
same,TGI,CCRF-CEM leukemia,> 100 µM
same,GI50,NCI-H226 lung,26 µM
same,TGI,NCI-H226 lung,76.3 µM
same,GI50,UACC-62 melanoma,16.5 µM
same,TGI,UACC-62 melanoma,33.6 µM
same,GI50,SF-295 CNS,27.1 µM
same,TGI,SF-295 CNS,94.6 µM
same,GI50,SK-MEL-28 melanoma,26.4 µM
same,TGI,SK-MEL-28 melanoma,79.6 µM
same,GI50,HCT-116 colon,25.7 µM
same,TGI,HCT-116 colon,68.6 µM
same,GI50,SR leukemia,16.9 µM
same,TGI,SR leukemia,41.3 µM
same,GI50,ACHN renal,27.4 µM
same,TGI,ACHN renal,91.2 µM
same,GI50,NCI-H522 lung,13.4 µM
same,TGI,NCI-H522 lung,38.4 µM
same,GI50,MDA-MB-435,16.3 µM
same,TGI,MDA-MB-435,33.3 µM
same,GI50,RXF 393 renal,18.7 µM
same,TGI,RXF 393 renal,37.9 µM
same,GI50,SK-MEL-5 melanoma,17.1 µM
same,TGI,SK-MEL-5 melanoma,31.6 µM
same,GI50,CAKI-1 renal,32 µM
same,TGI,CAKI-1 renal,86.1 µM
same,GI50,SK-OV-3 ovarian,23.6 µM
same,TGI,SK-OV-3 ovarian,84.4 µM
same,GI50,HOP-62 NSCLC,31.7 µM
same,TGI,HOP-62 NSCLC,> 100 µM
same,GI50,OVCAR-5 ovarian,23 µM
same,TGI,OVCAR-5 ovarian,70.8 µM
same,GI50,COLO 205 colon,14.7 µM
same,TGI,COLO 205 colon,34.6 µM
same,GI50,EKVX NSCLC,19.2 µM
same,TGI,EKVX NSCLC,52.2 µM
same,GI50,RPMI-8226 leukemia,21.7 µM
same,TGI,RPMI-8226 leukemia,58.2 µM
same,GI50,MCF7 breast,27 µM
same,TGI,MCF7 breast,62.6 µM
same,GI50,TK-10 renal,20.9 µM
same,TGI,TK-10 renal,64.7 µM
same,GI50,IGROV1 ovarian,10.8 µM
same,TGI,IGROV1 ovarian,30.5 µM
same,GI50,A549 NSCLC,22.9 µM
same,TGI,A549 NSCLC,58.1 µM
same,GI50,HL-60(TB) leukemia,16.5 µM
same,TGI,HL-60(TB) leukemia,38.7 µM
same,GI50,UACC-257 melanoma,19 µM
same,TGI,UACC-257 melanoma,42.6 µM
same,GI50,MALME-3M melanoma,21.6 µM
same,TGI,MALME-3M melanoma,51.4 µM
same,GI50,LOX IMVI melanoma,16.9 µM
same,TGI,LOX IMVI melanoma,34.3 µM
same,GI50,UO-31 renal,23 µM
same,TGI,UO-31 renal,57.4 µM
same,GI50,MDA-MB-231 breast,18.6 µM
same,TGI,MDA-MB-231 breast,47.6 µM
same,GI50,A498 renal,22.9 µM
same,TGI,A498 renal,59.2 µM
same,GI50,OVCAR-3 ovarian,19.5 µM
same,TGI,OVCAR-3 ovarian,47.5 µM
same,GI50,HOP-92 NSCLC,22.2 µM
same,TGI,HOP-92 NSCLC,58.8 µM
same,GI50,SF-268 CNS,24.2 µM
same,TGI,SF-268 CNS,> 100 µM
same,GI50,SW-620 colon,30.1 µM
same,TGI,SW-620 colon,> 100 µM
same,GI50,DU-145 prostate,27.1 µM
same,TGI,DU-145 prostate,74.3 µM
same,GI50,NCI-H460 lung,19.8 µM
same,TGI,NCI-H460 lung,49.6 µM
same,GI50,MOLT-4 leukemia,17.1 µM
same,TGI,MOLT-4 leukemia,51.4 µM
same,GI50,SNB-75 CNS,20.9 µM
same,TGI,SNB-75 CNS,79.9 µM
same,GI50,HT29 colon,17.2 µM
same,TGI,HT29 colon,42.1 µM
